The term IC50 denotes the concentration that inhibits the measured activity by half. High values mean a need for much substance, low ones inhibition by little substance.

Assay [1] can be described thus: Inhibition of collagenase type 4 after 30 mins by fluorescence plate reader.
In assay [2] the target is 72 kDa type IV collagenase (Homo sapiens, UniProt P08253). The experiment in a line: Inhibition of human rheumatoid synovial fibroblasts gelatinase A after 30 mins by fluorescence plate reader.
Assay [3] concerns the target Matrix metalloproteinase-9 (Homo sapiens, UniProt P14780). The experiment in a line: Inhibition of human neutrophils gelatinase B after 30 mins by fluorescence plate reader.

72 kDa type IV collagenase, sequence (P08253 whole entry): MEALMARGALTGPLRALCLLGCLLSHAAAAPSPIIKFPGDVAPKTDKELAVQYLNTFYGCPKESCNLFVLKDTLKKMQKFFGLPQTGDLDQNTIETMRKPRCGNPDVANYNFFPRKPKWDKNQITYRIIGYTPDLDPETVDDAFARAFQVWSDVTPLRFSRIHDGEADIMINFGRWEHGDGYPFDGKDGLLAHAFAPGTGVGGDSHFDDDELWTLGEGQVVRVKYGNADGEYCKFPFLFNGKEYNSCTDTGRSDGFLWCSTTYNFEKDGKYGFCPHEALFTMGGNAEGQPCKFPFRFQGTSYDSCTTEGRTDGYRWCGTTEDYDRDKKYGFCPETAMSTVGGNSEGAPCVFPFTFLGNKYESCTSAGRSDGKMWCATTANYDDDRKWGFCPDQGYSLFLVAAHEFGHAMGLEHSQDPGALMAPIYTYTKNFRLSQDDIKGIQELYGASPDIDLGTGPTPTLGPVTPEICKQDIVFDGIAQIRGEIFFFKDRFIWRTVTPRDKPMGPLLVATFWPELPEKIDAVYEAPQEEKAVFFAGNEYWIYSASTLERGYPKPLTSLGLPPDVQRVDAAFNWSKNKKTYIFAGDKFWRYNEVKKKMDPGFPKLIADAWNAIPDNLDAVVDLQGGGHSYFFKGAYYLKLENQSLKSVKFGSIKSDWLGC
Matrix metalloproteinase-9, sequence (P14780 whole entry): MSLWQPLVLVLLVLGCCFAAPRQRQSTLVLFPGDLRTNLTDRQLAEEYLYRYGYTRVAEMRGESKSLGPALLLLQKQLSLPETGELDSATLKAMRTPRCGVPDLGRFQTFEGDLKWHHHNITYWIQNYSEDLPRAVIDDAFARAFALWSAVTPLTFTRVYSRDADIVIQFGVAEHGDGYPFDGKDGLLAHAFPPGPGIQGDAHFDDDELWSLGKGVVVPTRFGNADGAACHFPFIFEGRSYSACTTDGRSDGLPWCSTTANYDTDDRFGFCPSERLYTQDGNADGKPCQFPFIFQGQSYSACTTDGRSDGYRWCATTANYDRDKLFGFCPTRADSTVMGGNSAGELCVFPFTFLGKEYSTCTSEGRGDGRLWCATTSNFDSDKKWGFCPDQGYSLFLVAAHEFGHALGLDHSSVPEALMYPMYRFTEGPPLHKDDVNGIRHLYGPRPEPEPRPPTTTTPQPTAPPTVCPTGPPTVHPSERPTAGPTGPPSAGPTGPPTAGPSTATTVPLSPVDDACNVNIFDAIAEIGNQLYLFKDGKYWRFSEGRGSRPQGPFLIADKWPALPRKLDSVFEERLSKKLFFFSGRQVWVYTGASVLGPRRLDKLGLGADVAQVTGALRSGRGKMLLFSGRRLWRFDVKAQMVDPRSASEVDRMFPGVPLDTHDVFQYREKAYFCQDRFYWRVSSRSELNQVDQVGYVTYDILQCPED

As to `Oc1cc(O)c2c(c1)O[C@H](c1ccc(O)c(O)c1)[C@H](O)[C@H]2c1c(O)cc2c(c1O)C(c1c(O)cc(O)c3c1O[C@H](c1ccc(O)c(O)c1)[C@H](O)C3)[C@@H](O)[C@@H](c1ccc(O)c(O)c1)O2` (stereo not given in full), the IC50 is 0.34 µM in assay [1], 0.4 µM in assay [2] and 2.3 µM in assay [3].

Consider `Oc1cc(O)c2c(c1)O[C@H](c1ccc(O)c(O)c1)[C@H](O)[C@H]2c1c(O)cc(O)c2c1O[C@H](c1ccc(O)c(O)c1)[C@H](O)[C@H]2c1c(O)cc(O)c2c1O[C@H](c1ccc(O)c(O)c1)[C@H](O)[C@H]2c1c(O)cc(O)c2c1O[C@H](c1ccc(O)c(O)c1)[C@H](O)[C@H]2c1c(O)cc(O)c2c1O[C@H](c1ccc(O)c(O)c1)[C@H](O)C2`, for which the half-inhibitory concentration (IC50) stood at 21.4 µM in assay [1], 43.2 µM in assay [2] and 39.2 µM in assay [3].

In the case of `[H]/N=C(\N/C(=N/[H])NCCCCCCNC(=N)NC(=N)Nc1ccc(Cl)cc1)Nc1ccc(Cl)cc1` [CHLORHEXIDINE], the concentration for half-maximal inhibition (IC50) in assay [2] and in assay [3] was 7.63 µM in each case.

In the case of `CC(C)C[C@H](NP(=O)(O)O[C@@H]1O[C@@H](C)[C@H](O)[C@@H](O)[C@H]1O)C(=O)N[C@@H](Cc1c[nH]c2ccccc12)C(=O)O` [PHOSPHORAMIDON], the half-maximal inhibitory concentration (IC50) in assay [1] was found to be 7.63 µM.

As for `Oc1cc(O)c2c(c1)O[C@H](c1ccc(O)c(O)c1)[C@H](O)[C@H]2c1c(O)cc(O)c2c1O[C@H](c1ccc(O)c(O)c1)[C@H](O)[C@H]2c1c(O)cc(O)c2c1O[C@H](c1ccc(O)c(O)c1)[C@H](O)C2` [PROCYANIDIN C1], the half-maximal inhibitory concentration (IC50) worked out at 11.3 µM in assay [1], 31.4 µM in assay [2] and 53.2 µM in assay [3].

On to `Oc1cc(O)c2c(c1)O[C@H](c1ccc(O)c(O)c1)[C@H](O)[C@H]2c1c(O)cc(O)c2c1O[C@H](c1ccc(O)c(O)c1)[C@H](O)[C@H]2c1c(O)cc2c(c1O)C[C@@H](O)[C@@H](c1ccc(O)c(O)c1)O2`, for which the results for the IC50 in assay [1], in assay [2] and in assay [3] were 0.98 µM, 12.4 µM and 27.3 µM, respectively.

(Values after ChEMBL document CHEMBL1159106, “Identification of potential and selective collagenase, gelatinase inhibitors from Crataegus pinnatifida” (Bioorg Med Chem Lett, 2010).)
